≈ marks a conversion by molar mass, not a printed value.
What was measured:
[1] = system: larvae of four mosquito species (Cx. pipiens pallens, Ae. aegypti, Ae. albopictus, and An. sinensis); assay: contact mortality bioassay, range over four mosquito species; type: in vivo; settings: 24 h
Procedure: A contact mortality bioassay[25] was used to evaluate the toxicity of all compounds against third-instar larvae of the four mosquito species. Each test compound in methanol was suspended in DW with Triton X-100 (20 µL/L). Groups of 20 mosquito larvae were separately placed into paper cups (270 mL) containing each compound solution (250 mL). […] Negative controls consisted of a methanol–Triton X-100 solution in DW.
Treated and control (methanol–Triton X-100 solution only) larvae were maintained under the same conditions as those used for colony maintenance without providing food. Larval mortalities were determined 24 h post-treatment. […] All treatments were performed three times using 20 larvae per replicate.
(§1) The concentration of the test compounds required to produce 50% AChE inhibitory activity (IC50) was determined using the SAS 9.13 program (Cary: SAS Institute; 2014). Concentration-mortality data were subjected to probit analysis using the SAS 9.13 program. […] Statistical analyses were performed using the SAS 9.13 program. Multiple linear regression and correlation analysis were performed using the SPSS 24 program (Armonk: IBM Corp.; 2016).

[2] = system: third-instar Ae. aegypti larvae; assay: light microscopy analysis of treated larvae; type: in vivo, Aedes aegypti; settings: honokiol 6.5 mg/L or magnolol 25 mg/L (LC50), 24 h
Procedure: At 24 h post-treatment, the untreated and treated larvae were placed on a microscope slide at room temperature for light microscopy. Morphological observations were made with an EZ4 HD stereo microscope (35×) equipped with an Integrated 3.0 Mega-Pixel CMOS camera (Leica Microsystems, Heerbrugg, Switzerland). All experiments were performed in duplicate, with 20 mosquito larvae used in each replicate. More than 10 live larvae from the control and treated groups were randomly collected and used for analysis.

[3] = set-up: method as in PMID 20877235; settings: cited from earlier work
[4] = target: acetylcholinesterase (AChE) from third-instar Ae. aegypti larvae (Aedes aegypti, UniProt A4GND7); assay: acetylcholinesterase inhibition assay; type: biochemical; settings: based on IC50 values
acetylcholinesterase (AChE) from third-instar Ae. aegypti larvae, sequence (A4GND7 37-679): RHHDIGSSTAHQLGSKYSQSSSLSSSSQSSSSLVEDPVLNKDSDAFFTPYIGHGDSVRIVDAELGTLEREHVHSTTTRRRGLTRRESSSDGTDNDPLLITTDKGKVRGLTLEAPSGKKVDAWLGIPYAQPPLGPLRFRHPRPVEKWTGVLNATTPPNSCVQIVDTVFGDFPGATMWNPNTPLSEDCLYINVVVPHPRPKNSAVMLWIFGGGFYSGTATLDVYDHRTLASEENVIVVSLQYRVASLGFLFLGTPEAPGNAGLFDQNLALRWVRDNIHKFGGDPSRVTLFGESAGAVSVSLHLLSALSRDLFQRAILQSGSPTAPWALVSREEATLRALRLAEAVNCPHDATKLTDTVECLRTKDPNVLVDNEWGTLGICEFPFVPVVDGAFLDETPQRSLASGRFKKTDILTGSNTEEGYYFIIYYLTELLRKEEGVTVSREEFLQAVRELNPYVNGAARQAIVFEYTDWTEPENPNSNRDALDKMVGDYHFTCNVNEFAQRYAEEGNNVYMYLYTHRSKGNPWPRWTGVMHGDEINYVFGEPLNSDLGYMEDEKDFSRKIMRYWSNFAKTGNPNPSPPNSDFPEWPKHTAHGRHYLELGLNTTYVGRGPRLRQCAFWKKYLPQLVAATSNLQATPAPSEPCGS
Procedure: The in vitro AChE inhibitory activity of the test compounds was assessed according to the method of Perumalsamy et al.[42]. Third-instar Ae. aegypti larvae were used in all experiments. Whole bodies of 50 larvae were homogenized in 1 mL of ice-cold 0.1 M phosphate buffer (pH 8.0) using a glass tissue homogenizer. After filtering through cheesecloth, the homogenate was centrifuged at 1,000 × g at 4 °C for 5 min. The supernatant was used directly as the enzyme source for AChE. The protein levels were determined using the Bradford Protein Assay Kit (Bio-Rad Laboratories, Hercules, CA, USA) using BSA as the standard. The reaction mixture consisted of 50 µL of the crude enzyme preparation (4.3–4.8 µg protein equivalents), 150 µL of 0.1 M phosphate buffer, 20 µL of 3 mM DTNB in phosphate buffer (pH 7.0), and 1 µL of various concentrations of each test compound in ethanol. The reaction mixture was incubated at 30 °C for 5 min, and 20 µL of 32 mM ATChI was then added to the mixture. After incubation for 30 min, the reaction was terminated by adding 20 µL of 5 mM eserine salicylate. Absorbance was recorded at 412 nm using a VersaMax microplate reader (Molecular Devices, Sunnyvale, CA, USA). […] The results are expressed as the means ± standard errors (SEs) of triplicate samples from three independent experiments.
as §1

[5] = system: third-instar larvae of insecticide-susceptible Aedes albopictus; assay: contact mortality bioassay, 24 h exposure; type: in vivo
[6] = system: third-instar larvae of insecticide-resistant Anopheles sinensis; assay: contact mortality bioassay, 24 h exposure; type: in vivo; settings: Table 5, larvae resistant to deltamethrin and temephos, 24 h exposure
AaV-type H^+-ATPase mRNA = assay: real-time qRT-PCR of target gene expression; type: in vivo, Aedes aegypti; settings: fold higher than the control group; anal gills; honokiol 6.5 mg/L or magnolol 25 mg/L, 24 h
Procedure: (§2) Real-time qRT-PCR with SYBR Green dye was performed to determine whether honokiol and magnolol treatment affected the expression levels of three target genes, AaAQP4, AaV-type H^+-ATPase and AeCS1, in Ae. aegypti. […] Total RNA was extracted from the anal gills (for AaAQP4 and AaV-type H^+-ATPase) and midgut (for AeCS1) of 50 larvae using an RNeasy Mini Kit (Qiagen, Valencia, CA, USA) according to the manufacturer’s instructions. Residual genomic DNA was removed using RQ1 RNase-Free DNase (Promega, Fitchburg, WI, USA), and 1 μg of total RNA from each sample was used for complementary DNA (cDNA) synthesis with an oligo(dT) primer (Invitrogen, Grand Island, NY, USA) according to the protocol of the SuperScript III Reverse Transcriptase Kit. Real-time qRT-PCR was performed in 96-well plates using the StepOne Plus Real-Time PCR System (Applied Biosystems, Foster, CA, USA). Each reaction mixture consisted of 10 μL of the SYBR Green PCR Master Mix Kit (Applied Biosystems, Warrington, Cheshire, UK), 2 μL of the forward and reverse primers (10 pmol each), 1 μL of cDNA (25 ng) and diethylpyrocarbonate-treated water for a final volume of 20 μL. The oligonucleotide PCR primer pairs are listed in Table 9 and were purchased from Cosmo Genetech (Seoul). The cycling program included an initial hold at 95 °C for 5 min, followed by 35 cycles at 95 °C for 30 s, at 58 °C for 30 s, at 72 °C for 1 min, and an extension at 72 °C for 5 min using an Applied Bioscience Thermal Cycler. The mRNA expression levels of the target genes were normalized to the mRNA expression level of the housekeeping gene Aarps7 and analyzed by the 2^−ΔΔCT method using the Applied Biosystems StepOne Software v2.1 and DataAssist Software. The results are expressed as the means ± SEs of duplicate samples from three independent experiments.

AeCS1 mRNA = assay: real-time qRT-PCR of target gene expression; type: in vivo, Aedes aegypti; settings: compared to control larvae; midgut; honokiol 6.5 mg/L or magnolol 25 mg/L, 24 h
Procedure: as §2

AaAQP4 mRNA = assay: real-time qRT-PCR of target gene expression; type: in vivo, Aedes aegypti; settings: fold higher than the control group; anal gills; honokiol 6.5 mg/L or magnolol 25 mg/L, 24 h
Procedure: as §2

SMILES | LC50 [1] [µg/mL] | anal gill region (light microscopy) [2] | morphology of the whole body (light microscopy) [2] | toxicity in animal models [3] | AChE inhibitory activity (in words) [4] | LC50 ([5]; Aedes albopictus, Table 4, 24 h exposure, read-out: LC50 (mg/L) (95% CI)) | LC90 (mg/L) (95% CI) ([5]; Table 4, 24 h exposure) | times less toxic than temephos ([5]; from 24 h LC50 values) [times] | Slope ± SE ([5]; probit slope, Table 4, 24 h exposure) | LC50 ([6]; Anopheles sinensis, read-out: LC50 (mg/L) (95% CI)) | LC90 (mg/L) (95% CI) [6] | Slope ± SE ([6]; probit slope) | AaV-type H^+-ATPase mRNA expression levels (AaV-type H^+-ATPase mRNA) | AeCS1 mRNA levels (AeCS1 mRNA) | AaAQP4 mRNA expression levels (AaAQP4 mRNA)
C=CCc1ccc(O)c(-c2ccc(O)c(CC=C)c2)c1 [Honokiol, 2-(4-hydroxy-3-prop-2-enyl-phenyl)-4-prop-2-enyl-phenol] | 6.13 to 7.37 (≈ 23 to 27.7 µM) | the anal gill from one side was swollen and reduced from its normal length, and the other one was completely damaged | severely damaged, with an indistinct appearance of the thorax, midgut, and abdominal regions | no toxicity or serious adverse effects | moderately | 6.13 (≈ 23 µM) | 16.52 (13.74–21.90) mg/L | 464 | 2.9 ± 0.52 | 7.37 (≈ 27.7 µM) | 31.45 (22.90–56.82) mg/L | 2.0 ± 0.35 | approximately 16 fold | 82% | approximately 18 fold
C=CCc1ccc(O)c(-c2cc(CC=C)ccc2O)c1 [Magnolol, magnolol] | – | completely damaged outer cuticle membranes with undistinguishable anal gills with no internal body fluid | shrunken body with no distinct abdominal segments | – | strongly | – | – | – | – | – | – | – | ~14 fold | up to 503% | did not affect
